Measurements reported in patent publication US20160136194A1, “Pharmaceutical composition comprising a proton pump inhibitor and a prebiotic for the treatment of ulcerous lesions of the stomach and duodenum” (priority 2010, published 2016).

Key:
Helicobacter pylori [1] = test: Microbiological method: isolation of H. pylori culture from patient material, before and after therapy; format: in vivo; conditions: share of patients positive, n = 10
Description: (§1) There were enrolled 80 patients aged 19 to 57 years in the study: males and females with newly diagnosed gastric and duodenal ulcer, five from them with Zollinger-Ellison syndrome.
(§2) All patients were divided into 8 groups of 10 patients each, 4 groups of them were experimental: the declared dosage forms on the base of PPI and prebiotic were orally administered by them. For the first group active components of the composition were omeprazole and a lactulose; for the second group—pantoprazole and prebiotic lactitol; for the third group—lansoprazole, and prebiotic inulin; for the fourth group—rabeprazole and prebiotic amino acids (glutamic acid). 5th, 6th, 7th and 8th groups were control: patients of the 5th group received monotherapy by omeprazole; patients of the 6th group—by lansoprazole; patients of the 7th group—esomeprazole and patients of the 8th group of patients received standard therapy for the elimination of H. pylori: omeprazole, metronidazole and clarithromycin.
(§3) All patients received treatment according to the similar regimen: took the composition of PPI and prebiotic 1-2 times a day within 14 days.
4. Microbiological method. Inoculation and isolation of pure culture of H. pylori from the biopsy material of the mucosa, obtained by gastroduodenoscopy.
Before the beginning and after the termination of the eradication therapy all 80 patients have been enrolled in the clinical trials were microbiologically tested on the presence of H. pylori, lactobacilli and bifidobacteria in the stomach and duodenum content.
The material was analyzed in microbiological laboratory of the Pasteur Institute of Epidemiology and Microbiology, St. Petersburg.
Strains of H. pylori were identified on the base of analysis of colony and cell morphology, cultural, biochemical and tinctorial properties of microorganisms. Lactobacillus strains isolated in the material from the intestine additionally were identified on catalase and oxidase activity.
The bacterium quantity in the material was estimated by calculation of colonies on dense nutrient mediums that were represented in the form of Ig CFU/ml.

Helicobacter pylori [2] = test: Cytological test of the biopsy material of the gastric mucosa; format: in vivo; conditions: share of patients positive, n = 10
Description: as §1, §2, §3
1. Cytological and histological examination of imprint smear of the biopsy material of the gastric antrum mucosa, obtained by gastroscopy. Thus, microcolonies of Helicobacter pylori are detected using special stain.

Helicobacter pylori [3] = test: Urease test of gastric mucosa biopsy material; format: in vivo; conditions: share of patients positive, n = 10
Description: as §1, §2, §3
2. Urease test. The biopsy material of the gastric mucosa was examinated for the presence of the urease—enzyme specific for Helicobacter pylori (Helicobacter Test INFAI).

gastric acid secretion = conditions: compared with PPI of the first generation; cited from earlier work
[4] = after therapy (1-2 times a day, 14 days)

| Structure (SMILES) | Isolation of Helicobacter pylori from stomach content (Helicobacter pylori [1]; [4]) [%] | Isolation of Helicobacter pylori from stomach content (Helicobacter pylori [1]; before therapy, peptic ulcer) [%] | Cytological test of the biopsy material of the gastric mucosa (Helicobacter pylori [2]; after therapy (14 days)) [%] | Cytological test of the biopsy material of the gastric mucosa (Helicobacter pylori [2]; before therapy) [%] | Urease test (Helicobacter pylori [3]; after therapy (14 days)) [%] | Urease test (Helicobacter pylori [3]; before therapy) [%] | Kept pH value <4 in stomach, above PPI of the first generation (gastric acid secretion) |
| --- | --- | --- | --- | --- | --- | --- | --- |
| COc1ccc2[nH]c([S+]([O-])Cc3ncc(C)c(OC)c3C)nc2c1 (stereo not shown) [5th group, omeprazole] | 50 | 100 | 40 | 80 | 30 | 70 |  |
| COc1ccc2nc([S@@+]([O-])Cc3ncc(C)c(OC)c3C)[nH]c2c1 [7th group, esomeprazole] | 50 | 100 | 40 | 70 | 40 | 60 | 10-15% |
| Cc1c(OCC(F)(F)F)ccnc1C[S+]([O-])c1nc2ccccc2[nH]1 (stereo not shown) [6th group, lansoprazole] | 60 | 100 | 40 | 60 | 60 | 70 |  |
